Data as given in PubChem BioAssay (NCI).
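Growth conditions: 96-well plates. Treatment: test compound, 48 hours, 5 concentrations. Analysis: linear interpolation between bracketing concentrations; unreached endpoints set to highest concentration. TGI denotes the concentration required for complete inhibition of growth.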

Experiments:
Assay in all cases: NCI-60 cell line screen, 48 h
BT-549 breast = system: BT-549 breast
OVCAR-4 ovarian = system: OVCAR-4 ovarian
TK-10 renal = system: TK-10 renal
ACHN renal = system: ACHN renal
786-0 renal = system: 786-0 renal
MOLT-4 leukemia = system: MOLT-4 leukemia
U251 CNS = system: U251 CNS
MALME-3M melanoma = system: MALME-3M melanoma
DMS 273 small cell lung = system: DMS 273 small cell lung
SNB-19 CNS = system: SNB-19 CNS
SW-620 colon = system: SW-620 colon
M14 melanoma = system: M14 melanoma
SF-539 CNS = system: SF-539 CNS
K-562 leukemia = system: K-562 leukemia
CCRF-CEM leukemia = system: CCRF-CEM leukemia
HCT-116 colon = system: HCT-116 colon
DLD-1 colon = system: DLD-1 colon
NCI/ADR-RES ovarian = system: NCI/ADR-RES ovarian
SK-OV-3 ovarian = system: SK-OV-3 ovarian
UACC-62 melanoma = system: UACC-62 melanoma
SNB-78 CNS = system: SNB-78 CNS
A549 NSCLC = system: A549 NSCLC
SF-268 CNS = system: SF-268 CNS
KM12 colon = system: KM12 colon
UO-31 renal = system: UO-31 renal
HT29 colon = system: HT29 colon
SK-MEL-28 melanoma = system: SK-MEL-28 melanoma
OVCAR-8 ovarian = system: OVCAR-8 ovarian
SK-MEL-2 melanoma = system: SK-MEL-2 melanoma
HOP-92 NSCLC = system: HOP-92 NSCLC
DU-145 prostate = system: DU-145 prostate
HS 578T breast = system: HS 578T breast
COLO 205 colon = system: COLO 205 colon
LOX IMVI melanoma = system: LOX IMVI melanoma
SNB-75 CNS = system: SNB-75 CNS
EKVX NSCLC = system: EKVX NSCLC
SK-MEL-5 melanoma = system: SK-MEL-5 melanoma
OVCAR-3 ovarian = system: OVCAR-3 ovarian
MDA-N = system: MDA-N
IGROV1 ovarian = system: IGROV1 ovarian
HOP-18 NSCLC = system: HOP-18 NSCLC
A498 renal = system: A498 renal
MDA-MB-435 = system: MDA-MB-435
OVCAR-5 ovarian = system: OVCAR-5 ovarian
UACC-257 melanoma = system: UACC-257 melanoma
NCI-H23 lung = system: NCI-H23 lung
MDA-MB-231 breast = system: MDA-MB-231 breast
SR leukemia = system: SR leukemia
M19-MEL melanoma = system: M19-MEL melanoma
RXF-631 renal = system: RXF-631 renal
KM20L2 colon = system: KM20L2 colon
MCF7 breast = system: MCF7 breast
HOP-62 NSCLC = system: HOP-62 NSCLC
PC-3 prostate = system: PC-3 prostate
T-47D breast = system: T-47D breast
HCT-15 colon = system: HCT-15 colon
HCC-2998 colon = system: HCC-2998 colon
RPMI-8226 leukemia = system: RPMI-8226 leukemia
SF-295 CNS = system: SF-295 CNS
NCI-H522 lung = system: NCI-H522 lung
NCI-H460 lung = system: NCI-H460 lung
NCI-H226 lung = system: NCI-H226 lung
HL-60(TB) leukemia = system: HL-60(TB) leukemia
RXF 393 renal = system: RXF 393 renal
SN12C renal = system: SN12C renal
DMS 114 small cell lung = system: DMS 114 small cell lung
CAKI-1 renal = system: CAKI-1 renal
XF 498 CNS = system: XF 498 CNS

Cc1c(N(C)C)ccc2c(=O)c3cccc(CC(=O)O)c3oc12
TGI (BT-549 breast): > 100 µM
TGI (OVCAR-4 ovarian): > 100 µM
TGI (TK-10 renal): > 100 µM
TGI (ACHN renal): > 100 µM
TGI (786-0 renal): > 100 µM
TGI (MOLT-4 leukemia): > 100 µM
TGI (U251 CNS): > 100 µM
TGI (MALME-3M melanoma): > 100 µM
TGI (DMS 273 small cell lung): > 100 µM
TGI (SNB-19 CNS): > 69 µM
TGI (SW-620 colon): > 53.5 µM
TGI (M14 melanoma): > 100 µM
TGI (SF-539 CNS): > 100 µM
TGI (K-562 leukemia): > 100 µM
TGI (CCRF-CEM leukemia): > 100 µM
TGI (HCT-116 colon): > 100 µM
TGI (DLD-1 colon): > 100 µM
TGI (NCI/ADR-RES ovarian): > 100 µM
TGI (SK-OV-3 ovarian): > 100 µM
TGI (UACC-62 melanoma): > 100 µM
TGI (SNB-78 CNS): > 100 µM
TGI (A549 NSCLC): > 100 µM
TGI (SF-268 CNS): > 100 µM
TGI (KM12 colon): > 100 µM
TGI (UO-31 renal): > 100 µM
TGI (HT29 colon): > 100 µM
TGI (SK-MEL-28 melanoma): > 100 µM
TGI (OVCAR-8 ovarian): > 100 µM
TGI (SK-MEL-2 melanoma): > 100 µM
TGI (HOP-92 NSCLC): > 100 µM
TGI (DU-145 prostate): > 100 µM
TGI (HS 578T breast): > 100 µM
TGI (COLO 205 colon): > 100 µM
TGI (LOX IMVI melanoma): > 100 µM
TGI (SNB-75 CNS): > 100 µM
TGI (EKVX NSCLC): > 100 µM
TGI (SK-MEL-5 melanoma): > 100 µM
TGI (OVCAR-3 ovarian): > 100 µM
TGI (MDA-N): > 100 µM
TGI (IGROV1 ovarian): > 100 µM
TGI (HOP-18 NSCLC): > 100 µM
TGI (A498 renal): > 100 µM
TGI (MDA-MB-435): > 100 µM
TGI (OVCAR-5 ovarian): > 100 µM
TGI (UACC-257 melanoma): > 100 µM
TGI (NCI-H23 lung): > 100 µM
TGI (MDA-MB-231 breast): > 100 µM
TGI (SR leukemia): > 100 µM
TGI (M19-MEL melanoma): > 100 µM
TGI (RXF-631 renal): > 100 µM
TGI (KM20L2 colon): > 100 µM
TGI (MCF7 breast): > 100 µM
TGI (HOP-62 NSCLC): > 100 µM
TGI (PC-3 prostate): > 100 µM
TGI (T-47D breast): > 100 µM
TGI (HCT-15 colon): > 100 µM
TGI (HCC-2998 colon): > 100 µM
TGI (RPMI-8226 leukemia): > 100 µM
TGI (SF-295 CNS): > 100 µM
TGI (NCI-H522 lung): > 100 µM
TGI (NCI-H460 lung): > 100 µM
TGI (NCI-H226 lung): > 100 µM
TGI (HL-60(TB) leukemia): > 100 µM
TGI (RXF 393 renal): > 100 µM
TGI (SN12C renal): > 100 µM
TGI (DMS 114 small cell lung): > 100 µM
TGI (CAKI-1 renal): > 100 µM

C/C(N=NC(=S)N1CC2CCC(CC2)C1)=C1\C=CC=CN1O
TGI (OVCAR-4 ovarian): > 100 µM
TGI (TK-10 renal): > 100 µM
TGI (ACHN renal): 30.7 µM
TGI (786-0 renal): > 100 µM
TGI (MOLT-4 leukemia): 6.46 µM
TGI (U251 CNS): > 61.4 µM
TGI (MALME-3M melanoma): > 82.4 µM
TGI (DMS 273 small cell lung): 24.2 µM
TGI (SNB-19 CNS): > 82.5 µM
TGI (SW-620 colon): > 100 µM
TGI (M14 melanoma): 20.3 µM
TGI (SF-539 CNS): 31 µM
TGI (K-562 leukemia): > 46.8 µM
TGI (CCRF-CEM leukemia): 1.29 µM
TGI (HCT-116 colon): 30.5 µM
TGI (DLD-1 colon): > 100 µM
TGI (NCI/ADR-RES ovarian): 8.73 µM
TGI (SK-OV-3 ovarian): > 100 µM
TGI (UACC-62 melanoma): 29.3 µM
TGI (SNB-78 CNS): > 100 µM
TGI (A549 NSCLC): > 68.8 µM
TGI (SF-268 CNS): > 100 µM
TGI (KM12 colon): > 31.6 µM
TGI (UO-31 renal): 43 µM
TGI (HT29 colon): > 57.9 µM
TGI (SK-MEL-28 melanoma): > 100 µM
TGI (OVCAR-8 ovarian): > 100 µM
TGI (SK-MEL-2 melanoma): > 100 µM
TGI (HOP-92 NSCLC): 54.5 µM
TGI (DU-145 prostate): > 100 µM
TGI (HS 578T breast): > 100 µM
TGI (COLO 205 colon): 38.4 µM
TGI (LOX IMVI melanoma): > 50.7 µM
TGI (SNB-75 CNS): 85.9 µM
TGI (EKVX NSCLC): > 65.9 µM
TGI (SK-MEL-5 melanoma): 41.1 µM
TGI (MDA-N): > 100 µM
TGI (IGROV1 ovarian): > 100 µM
TGI (HOP-18 NSCLC): > 100 µM
TGI (A498 renal): > 94.9 µM
TGI (MDA-MB-435): > 100 µM
TGI (OVCAR-5 ovarian): > 100 µM
TGI (UACC-257 melanoma): 35.2 µM
TGI (NCI-H23 lung): > 100 µM
TGI (MDA-MB-231 breast): > 100 µM
TGI (M19-MEL melanoma): 23.3 µM
TGI (RXF-631 renal): > 100 µM
TGI (KM20L2 colon): > 100 µM
TGI (MCF7 breast): > 100 µM
TGI (XF 498 CNS): 91.2 µM
TGI (HOP-62 NSCLC): > 100 µM
TGI (PC-3 prostate): 45.4 µM
TGI (T-47D breast): 94.8 µM
TGI (HCT-15 colon): > 100 µM
TGI (HCC-2998 colon): > 100 µM
TGI (RPMI-8226 leukemia): > 39.2 µM
TGI (SF-295 CNS): > 71.5 µM
TGI (NCI-H522 lung): 80.3 µM
TGI (NCI-H460 lung): 42.7 µM
TGI (NCI-H226 lung): 21.7 µM
TGI (HL-60(TB) leukemia): 3.54 µM
TGI (RXF 393 renal): 69.3 µM
TGI (SN12C renal): > 100 µM
TGI (DMS 114 small cell lung): 5.4 µM
TGI (CAKI-1 renal): > 100 µM
